The compounds below were run against P70S6K (T412E mutant) (Homo sapiens (Human), UniProt P23443, T412E) (assay: P70S6K enzyme assay). Conditions: 3 nM P70S6K T412E mutant, 24 μM ATP, 1 μM FITC-AHA-AKRRRLSSLRA-OH substrate peptide, 90 min at 25° C.
Assay type: biochemical
Description: The IC50 values reported for the compounds in the Experimental section were derived from the following protocol for the p70S6K enzyme assay.
P70S6K inhibitor compounds were diluted and plated in 96 well plates. A reaction mixture including the following components was then added to the compound plate to initiate the enzyme reaction; P70S6K (3 nM, T412E mutant, Millipore) was mixed with 24 μM ATP in an assay buffer containing 100 mM Hepes (pH 7.5), 5 mM MgCl2, 1 mM DTT, 0.015% Brij and 1 μM of the substrate peptide FITC-AHA-AKRRRLSSLRA-OH (derived from the S6 ribosomal protein sequence, FITC=fluorescein isothiocyanate, AHA=6-aminohexanoic acid). The reaction was incubated for 90 min at 25° C., before the addition of 10 mM EDTA to stop the reaction. The proportion of substrate and product (phosphorylated) peptide was analysed on a Caliper Life Sciences Lab Chip 3000, using a pressure of −1.4 psi, and upstream and downstream voltages of −3000 and −700 respectively. Product peaks were resolved before substrate peaks on the resulting chromatograms.

Chain of P70S6K (T412E mutant) (P23443 whole entry T412E): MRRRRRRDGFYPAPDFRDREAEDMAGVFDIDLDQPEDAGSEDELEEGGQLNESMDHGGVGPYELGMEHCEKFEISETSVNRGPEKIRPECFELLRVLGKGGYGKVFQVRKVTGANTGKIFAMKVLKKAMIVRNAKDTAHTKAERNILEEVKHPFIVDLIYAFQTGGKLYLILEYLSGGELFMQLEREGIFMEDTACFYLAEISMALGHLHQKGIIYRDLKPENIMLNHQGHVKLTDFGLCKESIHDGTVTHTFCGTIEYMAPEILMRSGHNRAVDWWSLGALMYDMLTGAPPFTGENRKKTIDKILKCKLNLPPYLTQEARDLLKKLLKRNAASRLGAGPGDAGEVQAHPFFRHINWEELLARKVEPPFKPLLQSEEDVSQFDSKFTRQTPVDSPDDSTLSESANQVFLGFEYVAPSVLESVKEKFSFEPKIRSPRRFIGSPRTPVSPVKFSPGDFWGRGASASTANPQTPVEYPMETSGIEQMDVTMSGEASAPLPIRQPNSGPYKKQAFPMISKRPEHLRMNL

Row | IC50 [µM] | SMILES
1 | 0.3 | Nc1ncnc(N2CCN(C(CN3CCC3)c3cccc(C(F)(F)F)c3Cl)CC2)c1-c1cn[nH]c1 (centres unmarked) [Example 134, 6-{4-[2-Azetidin-1-yl-1-(2-chloro-3-trifluoromethyl-phenyl)-ethyl]-piperazin-1-yl}-5-(1H-pyrazol-4-yl)-pyrimidin-4-ylamine]
2 | > 1 | CCc1c(N)ncnc1N1CCN(C(CN)C2CCCCC2)CC1 (centres unmarked) [Example 188, 6-[4-(2-Amino-1-cyclohexyl-ethyl)-piperazin-1-yl]-5-ethyl-pyrimidin-4-ylamine]
3 | 41 | NC(=O)c1c(N)ncnc1N1CCC(N)(C(=O)N[C@@H](CCO)c2ccc(C(F)(F)F)cc2)CC1 [Example 233, 4-Amino-6-{4-amino-4-[(S)-3-hydroxy-1-(4-trifluoromethyl-phenyl)-propylcarbamoyl]-piperidin-1-yl}-pyrimidine-5-carboxylic acid amide]
4 | 0.033 | CN(C)CCNC(c1ccc(F)cc1)C1CCN(c2ncnc(N)c2-c2ccc(F)cc2)CC1 (centres unmarked) [Example 150, 1-(6-amino-5-(4-fluorophenyl)pyrimidin-4-yl)(4-((4-fluorophenyl))methyl)-dimethylethane-1,2-diamine]
5 | 0.0095 | COc1ccc(-c2c(N)ncnc2N2CCC(N)(CNC(=O)c3ccc(F)cc3F)C2)cn1 (centres unmarked) [Example 201, N-{3-Amino-1-[6-amino-5-(6-methoxy-pyridin-3-yl)-pyrimidin-4-yl]-pyrrolidin-3-ylmethyl}-2,4-difluoro-benzamide]
6 | 0.073 | C[C@H](c1ccccc1)[C@H](CN)N1CCN(c2ncnc(N)c2-c2ccc(F)cc2)CC1 [Example 171, 6-[4-((1R,2R)-1-Aminomethyl-2-phenyl-propyl)-piperazin-1-yl]-5-(4-fluoro-phenyl)-pyrimidin-4-ylamine]
7 | 0.0033 | NCC(c1ccc(C(F)(F)F)cc1)C1CCN(c2ncnc(N)c2-c2ccc(F)cc2)CC1 (centres unmarked) [Example 52, 6-{4-[2-Amino-1-(4-trifluoromethyl-phenyl)-ethyl]-piperidin-1-yl}-5-(4-fluoro-phenyl)-pyrimidin-4-ylamine]
8 | 0.37 | NCC(c1ccc(C(F)(F)F)cc1)N1CCN(c2ncnc(N)c2F)CC1 (centres unmarked) [Example 74, 6-{4-[2-Amino-1-(4-trifluoromethyl-phenyl)-ethyl]-piperazin-1-yl}-5-fluoro-pyrimidin-4-ylamine]
9 | 0.1 | COC[C@H](NC(=O)C1(N)CCN(c2ncnc(N)c2-c2cn[nH]c2)CC1)c1ccc(Cl)cc1 [Example 240, 4-Amino-1-[6-amino-5-(1H-pyrazol-4-yl)-pyrimidin-4-yl]-piperidine-4-carboxylic acid [(R)-1-(4-chloro-phenyl)-2-methoxy-ethyl]-amide]
10 | 0.2 | Nc1ncnc(N2CCC(C(NCC3CCNCC3)c3ccc(F)cc3)CC2)c1-c1ccc(F)cc1 (centres unmarked) [Example 151]
11 | 0.64 | COc1ccc([C@@H](CN2CCC2)N2CCN(c3ncnc(N)c3-c3ccc(F)cc3)CC2)cc1F [Example 105, 6-{4-[(S)-2-Azetidin-1-yl-1-(3-fluoro-4-methoxy-phenyl)-ethyl]-piperazin-1-yl}-5-(4-fluoro-phenyl)-pyrimidin-4-ylamine]
12 | 0.0026 | NC[C@@H](c1ccc(Cl)nc1)N1CCN(c2ncnc(N)c2-c2ccc(F)cc2)CC1 [Example 175, 6-{4-[(R)-2-Amino-1-(6-chloro-pyridin-3-yl)-ethyl]-piperazin-1-yl}-5-(4-fluoro-phenyl)-pyrimidin-4-ylamine]
13 | 0.024 | Nc1ncnc(N2CCN(C(CN3CCCCC3)c3ccc(F)cc3)CC2)c1-c1ccc(F)cc1 (centres unmarked) [Example 67, 5-(4-Fluorophenyl)-6{4-[1-(4-fluoro-phenyl)-2-piperidin-1-yl-ethyl]-piperazin-1-yl}-pyrimidin-4-ylamine]
14 | 0.21 | NCC(c1ccc(C(F)(F)F)cc1)N1CCN(c2ncnc(N)c2CN2CC(F)C2)CC1 (centres unmarked) [Example 45, 6-(4-(2-amino-1-(4-(trifluoromethyl)phenyl)ethyl)piperazin-1-yl)-5-((3-fluoroazetidin-1-yl)methyl)pyrimidin-4-amine]
15 | 0.031 | Cn1cc(-c2c(N)ncnc2N2CCC(C(CN)c3ccc(C(F)(F)F)cc3)CC2)cn1 (centres unmarked) [Example 58, 6-(4-(2-amino-1-(4-(trifluoromethyl)phenyl)ethyl)piperidin-1-yl)-5-(1-methyl-1H-pyrazol-4-yl)pyrimidin-4-amine]
16 | 0.26 | CN(C)CC(c1ccc(C(F)(F)F)cc1)N1CCN(c2ncnc(N)c2C2CC2)CC1 (centres unmarked) [Example 28, 5-Cyclopropyl-6-(4-(2-(dimethylamino)-1-(4-(trifluoromethyl)phenyl)ethyl)piperazin-1-yl)pyrimidin-4-amine]

Row | IC50 [µM] | SMILES
17 | 1.6 | Nc1ncnc(N2CCN([C@@H](CN3CCC3)c3ccc4c(c3)OCCO4)CC2)c1-c1ccc(F)cc1 [Example 94, 6-{4-[(R)-2-Azetidin-1-yl-1-(2,3-dihydro-benzo[1,4]dioxin-6-yl)-ethyl]-piperazin-1-yl}-5-(4-fluoro-phenyl)-pyrimidin-4-ylamine]
18 | 0.011 | Nc1ncnc(N2CCC(C(OCCN3CCCC3)c3ccc(F)cc3)CC2)c1-c1ccc(F)cc1 (centres unmarked) [Example 146, 5-(4-fluoropheny)6-(4-((4-fluorophenyl)(2-(pyrrolidin-1-yl)ethoxy)methyl)-piperidin-1-yl)pyrimidin-4-amine]
19 | > 1 | Cn1ccnc1C(c1ccccc1)N1CCN(c2ncnc(N)c2Br)CC1 (centres unmarked) [Example 29, 5-Bromo-6-{4-[(1-methyl-1H-imidazol-2-yl)-phenyl-methyl]-piperazin-1-yl}-pyrimidin-4-ylamine]
20 | 0.59 | N#CC(c1ccc(F)c(Cl)c1)N1CCN(c2ncnc(N)c2-c2ccc(F)cc2)CC1 (centres unmarked) [Example 160, {4-[6-Amino-5-(4-fluoro-phenyl)-pyrimidin-4-yl]-piperazin-1-yl}-(3-chloro-4-fluoro-phenyl)-acetonitrile]
21 | 0.035 | C=Cc1c(N)ncnc1N1CCN(C(CN(C)C)c2ccc(C(F)(F)F)cc2)CC1 (centres unmarked) [Example 21, 6-(4-(2-(dimethylamino)-1-(4-(trifluoromethyl)phenyl)ethyl)piperazin-1-yl)-5-vinylpyrimidin-4-amine]
22 | 0.0026 | NC[C@H](c1ccc(C(F)(F)F)cc1)N1CCN(c2ncnc(N)c2-c2ccc(F)cc2)CC1 [Example 3, 6-{4-[(S)-2-Amino-1-(4-trifluoromethyl-phenyl)-ethyl]-piperazin-1-yl}-5-(4-fluoro-phenyl)-pyrimidin-4-ylamine]
23 | 0.12 | Nc1ncnc(N2CCC(N)(CNC(=O)c3ccc(F)cc3F)C2)c1-c1ccc(Oc2ccccc2)cc1 (centres unmarked) [Example 200, N-{3-Amino-1-[6-amino-5-(4-phenoxy-phenyl)-pyrimidin-4-yl]-pyrrolidin-3-ylmethyl}-2,4-difluoro-benzamide]
24 | 0.0045 | NC[C@@H](c1ccc(C(F)(F)F)cc1)C1CCN(c2ncnc(N)c2-c2ccc(F)cc2)CC1 [Example 54, 6-{4-[(R)-2-Amino-1-(4-trifluoromethyl-phenyl)-ethyl]-piperidin-1-yl}-5-(4-fluoro-phenyl)-pyrimidin-4-ylamine]
25 | 22 | CCOC(=O)Cn1cc(-c2c(N)ncnc2N2CCN(C(CN3CCC3)c3ccc4c(c3)CCCC4)CC2)cn1 (centres unmarked) [Example 119, [4-(4-Amino-6-{4-[2-azetidin-1-yl-1-(5,6,7,8-tetrahydro-naphthalen-2-yl)-ethyl]-piperazin-1-yl}-pyrimidin-5-yl)-pyrazol-1-yl]-acetic acid ethyl ester]
26 | 1.1 | Nc1ncnc(N2CCN(C(CN3CCC3)c3ccc(C(F)(F)F)cc3F)CC2)c1-c1cn[nH]c1 (centres unmarked) [Example 120, 6-{4-[2-Azetidin-1-yl-1-(2-fluoro-4-trifluoromethyl-phenyl)-ethyl]-piperazin-1-yl}-5-(1H-pyrazol-4-yl)-pyrimidin-4-ylamine]
27 | 0.19 | CC[C@H](NC(=O)C1(N)CCN(c2ncnc(N)c2Cl)CC1)c1ccc(Cl)cc1 [Example 215, 4-Amino-1-(6-amino-5-chloro-pyrimidin-4-yl)-piperidine-4-carboxylic acid [(S)-1-(4-chloro-phenyl)-propyl]-amide]
28 | 0.19 | COC(=O)c1ccc([C@H](CN2CCC2)N2CCN(c3ncnc(N)c3-c3ccc(F)cc3)CC2)cc1 [Example 111, 4-((R)-1-{4-[6-Amino-5-(4-fluoro-phenyl)-pyrimidin-4-yl]-piperazin-1-yl}-2-azetidin-1-yl-ethyl)-benzoic acid methyl ester]
29 | 0.92 | Nc1ncnc(N2CCN([C@@H](CN3CCC3)c3cccc(F)c3)CC2)c1-c1ccc(F)cc1 [Example 103, 6-{4-[(R)-2-Azetidin-1-yl-1-(3-fluoro-phenyl)-ethyl]-piperazin-1-yl}-5-(4-fluoro-phenyl)-pyrimidin-4-ylamine]
30 | 0.46 | Nc1ncnc(N2CCC(C(c3ccc(F)cc3)N3CCC(F)(F)C3)CC2)c1-c1ccc(F)cc1 (centres unmarked) [Example 149, 5-(4-fluoropheny)-6-(4-((4-fluorophenyl)(3-difluoropyrrolidin-1-yl)methyl)piperidin-1-yl)pyrimidin-4-amine]
31 | 0.012 | COC(=O)c1ccc(-c2c(N)ncnc2N2CCN(C(CN(C)C)c3ccc(C(F)(F)F)cc3)CC2)cc1 (centres unmarked) [Example 23, Methyl 4-(4-amino-6-(4-(2-(dimethylamino)-1-(4-(trifluoromethyl)phenyl)ethyl)piperazin-1-yl)pyrimidin-5-yl)benzoate]

Row | SMILES | IC50 [µM]
32 | NC(=O)c1c(N)ncnc1N1CCC(N)(C(=O)N[C@@H](CCO)c2ccc(Cl)cc2)CC1 [Example 247] | 3.6

— US9321760B2 (Merck Patent GmbH, priority 2011, dated 2016)
